According to publication PMC8533253, “Bis-thiobarbiturates as Promising Xanthine Oxidase Inhibitors: Synthesis and Biological Evaluation” (Biomedicines, 2021):

What was measured:
[1] = Cytotoxicity/antiproliferative assay (MTT) on MCF-7; format: cell-based; conditions: human, MCF-7 cells (breast adenocarcinoma), read-out: Cytotoxicity (% cell viability at 30 µM) MCF-7
Protocol: (§1) XO inhibitory and antioxidant assays were performed in triplicate while antiproliferative assay was conducted in quadruplicate. For each assay, at least two independent experiments were performed. An initial screening at the concentration of 30 μM for all compounds under study was performed in each in vitro study. A second screening at 5 μM was performed for compounds that originated an inhibitory potential higher than 80% for the XO activity at 30 μM. Half-maximal inhibitory concentration (IC50) studies were performed for drugs used as a reference and for the most promising bis-thiobarbiturate in XO inhibitory, antioxidant, and cytotoxicity assays.
(§2) The cytotoxic potential of the compounds being studied was evaluated by quantifying the extent of the reduction of 3-(4,5-dimethylthiazol-2-yl)-2,5-diphenyltetrazolium bromide (MTT, VWR, Radnor, PA, USA) on tumor cell lines of the colon (Caco-2) and breast (MCF-7) adenocarcinoma and non-tumor human dermal fibroblasts (NHDF). All cell lines were obtained from the American Type Culture Collection (ATCC, Manassas, VA, USA) and were maintained in 75 cm^2 culture flasks in a humidified air incubator with 5% CO2 at 37 °C. NHDF cells have grown in RPMI 1640 medium (Sigma-Aldrich, St. Louis, MO, USA) supplemented with 10% fetal bovine serum (FBS), 10 mM 4-(2-hydroxyethyl)-1-piperazineethanesulfonic acid (HEPES), 2 mM L-glutamine, 1 mM sodium pyruvate, and 1% antibiotic/antimycotic (Ab: 10,000 units/mL penicillin G, […] streptomycin and 25 μg/mL amphotericin B). MCF-7 cells were cultured in high-glucose Dulbecco’s modified Eagle medium (DMEM, Sigma-Aldrich, St. Louis, MO, USA) supplemented with 10% FBS, and 1% Ab. The Caco-2 cell line was cultured in a high glucose DMEM supplemented with 20% FBS and 1% of the antibiotic mixture (Sp: 10,000 units/mL penicillin G and […] of streptomycin). For the assay, cells were seeded in 96-well plates (2 × 10^4 cells/mL) in the culture medium. After 48 h of adherence, cells were treated with the test solutions and incubated for 72 h. […] Untreated cells were used as a negative control and 5-FU as the positive control. Following incubation, the medium was removed and replaced with a fresh incomplete culture medium (without FBS and Ab or Sp) and MTT solution [5 mg/mL in phosphate buffer saline (PBS)]. After further incubation for 4 h at 37 °C, the medium with MTT was removed, formazan crystals were dissolved in DMSO, and the absorbance was read at 570 nm. Results were expressed as the relative cell proliferation in comparison with the negative control cells.
(§3) All in vitro results are expressed as mean values ± standard deviation (SD) of at least two independent determinations. The difference between groups was analyzed for each assay by Student’s t-test. The IC50 values were calculated by sigmoidal fitting analysis considering a 95% confidence interval.

[2] = Cytotoxicity/antiproliferative assay (MTT) on Caco-2; format: cell-based; conditions: human, read-out: Cytotoxicity (% cell viability at 30 µM) Caco-2
Protocol: as §1, §2, §3

[3] = Cytotoxicity assay (MTT) on NHDF; format: cell-based, human; conditions: human, NHDF cells (non-tumor human dermal fibroblasts), 30 µM, 72 h, MTT; read-out: Cytotoxicity (% cell viability at 30 µM) NHDF
Protocol: as §1, §2, §3

[4] = biological target: T1, Xanthine oxidase (XO) (Bos taurus, UniProt P80457); experiment: XO inhibitory assay (spectrophotometric quantification of uric acid formation at 295 nm); format: biochemical; conditions: read-out: XO inhibition (%)
T1 construct: purchased Sigma-Aldrich X4875
Protocol: as §1, with “A second screening at 5 μM was performed for compounds that originated an inhibitory potential higher than 80% for the XO activity at 30 μM.” left out
The XO inhibitory activity was evaluated by spectrophotometric quantification of uric acid formation. The 50 mM dihydrogen phosphate buffer (pH 7.4) was used to dilute all solutions. For each assay performed, 50 μL of the test solution and 50 μL of the 0.1 U/mL XO (Sigma-Aldrich X4875, St. Louis, MO, USA) solution were added in each well of an Elisa microplate (96 wells) followed by 5 min of incubation at 37 °C. […] The reaction started with the addition of 150 μL of a xanthine solution (420 μM). The absorbance was recorded at a wavelength of 295 nm every minute for 10 min. To obtain only the absorbance associated with uric acid, a solution consisting of 50 μL of the test solution, 150 μL of the xanthine solution, and 50 μL of buffer were used as blank. […] For each compound, the percentage of enzyme inhibition was calculated according to the following formula:% of XO inhibition = [1 − (ABSsample − ABSblank of sample)/ABSnegative control] × 100
as §3

[5] = Antioxidant assay, DPPH method; conditions: 60 min
Protocol: as §1
Antioxidant potential was spectrophotometrically evaluated by the 2,2-diphenyl-1-picrylhydrazyl (DPPH, Sigma-Aldrich, St. Louis, MO, USA) method. All solutions and dilutions were prepared in 99.5% ethanol before each experiment. For each assay, 100 μL of the test solution and 100 μL of DPPH solution (0.2 mM) were added to each well of a 96 wells Elisa microplate. […] After 60 min of incubation in dark at rt, the capacity of each compound to reduce DPPH was followed by measuring the absorbance at 517 nm. Ethanol was used as a negative control and Trolox as the positive control. To discount the absorbance of each compound at 517 nm, a blank was performed with 100 μL of each test compound and 100 μL of ethanol. The antioxidant capacity of each sample was calculated according to the following formula:% DPPH scavenging = [1 − (ABSsample − ABSblank of sample)/ABSnegative control] × 100
as §3

T1 sequence (P80457 whole entry): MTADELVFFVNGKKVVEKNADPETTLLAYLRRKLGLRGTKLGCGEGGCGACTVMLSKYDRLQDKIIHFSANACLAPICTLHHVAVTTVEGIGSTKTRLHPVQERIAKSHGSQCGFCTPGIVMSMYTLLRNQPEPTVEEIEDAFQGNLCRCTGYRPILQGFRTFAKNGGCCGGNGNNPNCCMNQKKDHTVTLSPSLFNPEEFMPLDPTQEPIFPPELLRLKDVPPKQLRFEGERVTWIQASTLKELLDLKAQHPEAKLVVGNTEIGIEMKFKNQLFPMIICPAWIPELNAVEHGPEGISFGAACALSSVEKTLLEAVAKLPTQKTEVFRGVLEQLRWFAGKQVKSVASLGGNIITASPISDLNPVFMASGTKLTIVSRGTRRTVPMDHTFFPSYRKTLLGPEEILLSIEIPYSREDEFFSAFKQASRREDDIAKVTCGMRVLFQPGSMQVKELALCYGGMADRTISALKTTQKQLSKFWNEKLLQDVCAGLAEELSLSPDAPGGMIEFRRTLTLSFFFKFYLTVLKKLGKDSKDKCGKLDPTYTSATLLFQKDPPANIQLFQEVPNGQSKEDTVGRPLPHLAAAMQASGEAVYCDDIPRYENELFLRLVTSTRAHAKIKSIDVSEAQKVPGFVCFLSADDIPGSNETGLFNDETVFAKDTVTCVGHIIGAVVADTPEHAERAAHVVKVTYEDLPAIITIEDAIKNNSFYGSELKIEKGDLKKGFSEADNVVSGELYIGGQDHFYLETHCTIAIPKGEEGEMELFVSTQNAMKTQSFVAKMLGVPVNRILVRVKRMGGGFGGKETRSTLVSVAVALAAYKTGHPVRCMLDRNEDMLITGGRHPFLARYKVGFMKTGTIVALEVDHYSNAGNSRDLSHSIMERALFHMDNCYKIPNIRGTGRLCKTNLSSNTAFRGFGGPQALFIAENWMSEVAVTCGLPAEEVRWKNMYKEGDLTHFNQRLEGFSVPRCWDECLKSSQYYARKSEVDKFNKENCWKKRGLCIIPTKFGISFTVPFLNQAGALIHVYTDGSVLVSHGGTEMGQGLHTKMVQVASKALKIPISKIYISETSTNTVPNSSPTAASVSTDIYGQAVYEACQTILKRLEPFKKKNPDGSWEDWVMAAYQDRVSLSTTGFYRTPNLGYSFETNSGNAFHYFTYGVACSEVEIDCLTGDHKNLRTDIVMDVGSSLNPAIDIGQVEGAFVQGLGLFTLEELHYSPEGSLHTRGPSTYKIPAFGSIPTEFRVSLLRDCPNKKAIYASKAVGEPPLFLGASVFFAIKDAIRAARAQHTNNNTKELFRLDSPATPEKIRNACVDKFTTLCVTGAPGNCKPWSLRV

| Compound | melting point | viability at 72 h, 30 µM [1] | viability at 72 h, 30 µM [2] | viability at 72 h, 30 µM [3] | inhibition at 5 µM [4] | inhibition at 30 µM [4] | DPPH (% scavenging at 30 µM) [5] | IC50 ([5]; read-out: DPPH Scavenging IC50) |
| --- | --- | --- | --- | --- | --- | --- | --- | --- |
| O=c1[nH]c(O)c(C(c2ccc([N+](=O)[O-])cc2)c2c(O)[nH]c(=O)[nH]c2=O)c(=O)[nH]1 | 227 °C (dec.) |  |  |  |  |  |  |  |
| CCn1c(O)c(C(c2cccnc2)c2c(O)n(CC)c(=S)n(CC)c2=O)c(=O)n(CC)c1=S [Compound 19, 5,5′-(Pyridin-3-ylmethylene)bis(1,3-diethyl-6-hydroxy-2-thioxo-2,3-dihydropyrimidin-4(1H)-one)] | 253 to 254 °C | 93.7 ± 5.68% | 80.7 ± 13% | 81 ± 3.57% | 67.3 ± 1.27% | 91.7 ± 1.87% | 3.83 ± 2.44% |  |
| CCn1c(O)c(C(C(C)=Cc2ccccc2)c2c(O)n(CC)c(=S)n(CC)c2=O)c(=O)n(CC)c1=S [Compound 18, 5,5′-(2-Methyl-3-phenylprop-2-ene-1,1-diyl)bis(1,3-diethyl-6-hydroxy-2-thioxo-2,3-dihydropyrimidin-4(1H)-one)] | 145 to 146 °C | 88.3 ± 3.29% | 94.7 ± 7.19% | 86.5 ± 2.38% | 63.4 ± 2.1% | 98.85 ± 0.82% | 31.04 ± 0.66% |  |
| CCn1c(O)c(C(c2ccc(OC)cc2)c2c(O)n(CC)c(=S)n(CC)c2=O)c(=O)n(CC)c1=S [Compound 10, 5,5′-((4-Methoxyphenyl)methylene)bis(1,3-diethyl-6-hydroxy-2-thioxo-2,3-dihydropyrimidin-4(1H)-one)] | 139 to 140 °C | 100 ± 13% | 62.6 ± 7.74% |  |  | 23.5% | 38.12 ± 1.56% |  |
| CCn1c(O)c(C(c2ccccc2)c2c(O)n(CC)c(=S)n(CC)c2=O)c(=O)n(CC)c1=S [Compound 3, 5,5′-(Phenylmethylene)bis(1,3-diethyl-6-hydroxy-2-thioxo-2,3-dihydropyrimidin-4(1H)-one)] | 177 to 179 °C | 90 ± 5.33% | 91.2 ± 9.87% | 88.7 ± 1.4% | 10.4% | 80.2% | 34.58 ± 0.96% |  |
| O=c1[nH]c(=S)[nH]c(O)c1C(c1ccc([N+](=O)[O-])cc1)c1c(O)[nH]c(=S)[nH]c1=O [Compound 7, 5,5′-((4-Nitrophenyl)methylene)bis(6-hydroxy-2-thioxo-2,3-dihydropyrimidin-4(1H)-one)] | 225 °C (dec.) | 98.7 ± 4.83% | 97.1 ± 3.63% | 96.6 ± 4.32% |  | 20.9% | 32.41 ± 0.26% |  |
| CCn1c(O)c(C(c2ccc([N+](=O)[O-])cc2[N+](=O)[O-])c2c(O)n(CC)c(=S)n(CC)c2=O)c(=O)n(CC)c1=S [Compound 15, 5,5′-((2,4-Dinitrophenyl)methylene)bis(1,3-diethyl-6-hydroxy-2-thioxo-2,3-dihydropyrimidin-4(1H)-one)] | 169 to 170 °C | 91.2 ± 4.26% | 96.9 ± 4.73% | 91.2 ± 7.77% |  | 14.9% | 32.33 ± 0.48% |  |
| CCn1c(O)c(C(c2ccc(N(C)C)cc2[N+](=O)[O-])c2c(O)n(CC)c(=S)n(CC)c2=O)c(=O)n(CC)c1=S [Compound 14, 5,5′-((4-(Dimethylamino)-2-nitrophenyl)methylene)bis(1,3-diethyl-6-hydroxy-2-thioxo-2,3-dihydropyrimidin-4(1H)-one)] | 143 to 145 °C | 88.1 ± 3.25% | 97.2 ± 2.97% | 80.1 ± 7.69% | 56.3 ± 1.21% | 90.7 ± 0.71% | 28.04 ± 0.25% |  |
| CCn1c(O)c(C(c2cccc(O)c2)c2c(O)n(CC)c(=S)n(CC)c2=O)c(=O)n(CC)c1=S [Compound 12, 5,5′-((3-Hydroxyphenyl)methylene)bis(1,3-diethyl-6-hydroxy-2-thioxo-2,3-dihydropyrimidin-4(1H)-one)] | 191 to 193 °C | 91.7 ± 4.91% | 90.9 ± 3.84% | 85.6 ± 7.17% |  | 72.2% | 42.92 ± 0.61% |  |
| CCn1c(O)c(C(c2ccc([N+](=O)[O-])cc2)c2c(O)n(CC)c(=S)n(CC)c2=O)c(=O)n(CC)c1=S [Compound 6, 5,5′-((4-Nitrophenyl)methylene)bis(1,3-diethyl-6-hydroxy-2-thioxo-2,3-dihydropirimidin-4(1H)-one)] | 202 to 204 °C | 91.7 ± 1.48% | 100 ± 4.45% | 99.8 ± 5.43% | 56.8% | 92.2% | 34.99 ± 1.32% |  |
| CCn1c(O)c(C(c2ccc(C#N)cc2)c2c(O)n(CC)c(=S)n(CC)c2=O)c(=O)n(CC)c1=S [Compound 5, 4-(Bis(1,3-diethyl-6-hydroxy-4-oxo-2-thioxo-1,2,3,4-tetrtahydropyrimidin-5-yl)methyl)benzonitrile] | 199 to 200 °C | 90.7 ± 4.06% | 62.5 ± 11.9% | 86.5 ± 5.92% | 52.9% | 86.1% | 34.76 ± 1.42% |  |
| Oc1ncnc2[nH]ncc12 [Allo, allopurinol, reference compound] |  |  |  |  | 26.9 ± 0.82% | 88.5% | 0.48 ± 0.21% |  |
| Cc1nc(-c2ccc(OCC(C)C)c(C#N)c2)sc1C(=O)O [Febuxostat, febuxostat, reference compound] |  |  |  |  | 93.9 ± 2.84% | 95% |  |  |
| O=c1[nH]cc(F)c(=O)[nH]1 [Compound 5-FU, 5-fluorouracil, reference compound] |  | 45.9 ± 4.72% | 37.1 ± 1.51% | 20.9 ± 0.83% |  |  |  |  |
| Cc1c(C)c2c(c(C)c1O)CCC(C)(C(=O)O)O2 (stereo not shown) [Trolox, reference compound] |  |  |  |  |  |  | 54.86 ± 0.98% | 23.8 ± 2.13 µM |
